Results: ChEMBL document CHEMBL5291721, “A preclinical secondary pharmacology resource illuminates target-adverse drug reaction associations of marketed drugs” (Nat Commun, 2023)

Key:
[1] = biological target: T1, Glucocorticoid receptor (Homo sapiens, UniProt P04150)
T1 sequence (P04150 whole entry): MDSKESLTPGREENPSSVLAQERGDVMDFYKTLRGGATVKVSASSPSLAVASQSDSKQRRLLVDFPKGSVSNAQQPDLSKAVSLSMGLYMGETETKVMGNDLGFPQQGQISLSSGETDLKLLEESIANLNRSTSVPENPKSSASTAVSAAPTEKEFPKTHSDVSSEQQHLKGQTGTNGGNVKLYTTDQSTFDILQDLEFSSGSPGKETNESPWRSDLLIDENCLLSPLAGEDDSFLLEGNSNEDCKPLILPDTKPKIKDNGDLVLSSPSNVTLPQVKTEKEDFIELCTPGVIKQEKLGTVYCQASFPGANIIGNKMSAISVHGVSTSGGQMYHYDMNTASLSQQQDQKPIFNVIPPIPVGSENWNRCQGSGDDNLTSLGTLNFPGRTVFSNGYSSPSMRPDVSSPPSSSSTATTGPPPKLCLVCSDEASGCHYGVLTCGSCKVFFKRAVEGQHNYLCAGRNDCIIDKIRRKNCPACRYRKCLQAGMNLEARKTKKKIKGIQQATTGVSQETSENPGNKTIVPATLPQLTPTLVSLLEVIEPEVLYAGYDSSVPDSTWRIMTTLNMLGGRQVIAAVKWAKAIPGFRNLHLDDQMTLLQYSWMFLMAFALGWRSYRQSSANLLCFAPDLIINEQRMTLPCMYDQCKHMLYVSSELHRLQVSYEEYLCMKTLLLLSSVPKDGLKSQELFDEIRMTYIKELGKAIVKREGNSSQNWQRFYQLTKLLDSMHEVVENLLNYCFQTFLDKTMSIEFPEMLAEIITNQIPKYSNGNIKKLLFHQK

[2] = biological target: 5-hydroxytryptamine receptor 2A (Homo sapiens, UniProt P28223); format: functional, cell-based
Sequence of 5-hydroxytryptamine receptor 2A (P28223 whole entry): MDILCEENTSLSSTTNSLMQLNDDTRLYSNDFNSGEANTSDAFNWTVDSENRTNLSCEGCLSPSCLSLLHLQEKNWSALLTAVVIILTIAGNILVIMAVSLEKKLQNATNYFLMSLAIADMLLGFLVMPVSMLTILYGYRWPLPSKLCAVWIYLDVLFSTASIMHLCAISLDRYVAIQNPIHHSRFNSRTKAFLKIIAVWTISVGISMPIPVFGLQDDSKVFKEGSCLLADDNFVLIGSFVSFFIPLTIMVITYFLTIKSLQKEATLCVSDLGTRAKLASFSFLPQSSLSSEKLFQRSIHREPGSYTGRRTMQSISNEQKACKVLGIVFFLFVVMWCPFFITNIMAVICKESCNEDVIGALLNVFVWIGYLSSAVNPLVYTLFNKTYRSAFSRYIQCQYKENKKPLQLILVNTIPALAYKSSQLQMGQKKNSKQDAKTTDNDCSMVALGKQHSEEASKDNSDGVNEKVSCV

[3] = biological target: Beta-2 adrenergic receptor (Homo sapiens, UniProt P07550)
Sequence of Beta-2 adrenergic receptor (P07550 whole entry): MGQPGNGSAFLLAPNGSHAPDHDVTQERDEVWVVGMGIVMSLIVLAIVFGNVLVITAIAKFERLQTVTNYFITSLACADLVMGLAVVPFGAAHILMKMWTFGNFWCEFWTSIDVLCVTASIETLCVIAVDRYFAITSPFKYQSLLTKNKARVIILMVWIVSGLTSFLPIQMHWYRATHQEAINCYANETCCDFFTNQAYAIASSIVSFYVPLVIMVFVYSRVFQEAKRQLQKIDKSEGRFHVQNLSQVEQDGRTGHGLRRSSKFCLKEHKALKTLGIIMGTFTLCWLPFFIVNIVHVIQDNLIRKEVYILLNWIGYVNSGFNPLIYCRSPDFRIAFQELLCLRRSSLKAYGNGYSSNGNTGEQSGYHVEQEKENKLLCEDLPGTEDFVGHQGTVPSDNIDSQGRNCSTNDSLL

[4] = biological target: Gamma-aminobutyric acid receptor subunit alpha-1 (Rattus norvegicus, UniProt P62813)
Sequence of Gamma-aminobutyric acid receptor subunit alpha-1 (P62813 whole entry): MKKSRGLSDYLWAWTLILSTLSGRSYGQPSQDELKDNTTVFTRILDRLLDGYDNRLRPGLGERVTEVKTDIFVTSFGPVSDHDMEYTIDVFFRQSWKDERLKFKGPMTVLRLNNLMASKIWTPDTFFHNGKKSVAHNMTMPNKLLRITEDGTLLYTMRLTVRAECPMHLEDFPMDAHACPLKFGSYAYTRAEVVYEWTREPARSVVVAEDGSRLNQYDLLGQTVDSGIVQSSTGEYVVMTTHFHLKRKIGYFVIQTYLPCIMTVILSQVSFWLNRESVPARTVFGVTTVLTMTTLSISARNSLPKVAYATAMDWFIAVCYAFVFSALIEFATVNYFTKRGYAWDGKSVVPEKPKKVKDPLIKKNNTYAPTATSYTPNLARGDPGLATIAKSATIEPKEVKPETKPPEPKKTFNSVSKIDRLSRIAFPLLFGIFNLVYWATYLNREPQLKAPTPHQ

[5] = biological target: T2, Alpha-1A adrenergic receptor (Homo sapiens, UniProt P35348); format: functional, cell-based
T2 sequence (P35348 whole entry): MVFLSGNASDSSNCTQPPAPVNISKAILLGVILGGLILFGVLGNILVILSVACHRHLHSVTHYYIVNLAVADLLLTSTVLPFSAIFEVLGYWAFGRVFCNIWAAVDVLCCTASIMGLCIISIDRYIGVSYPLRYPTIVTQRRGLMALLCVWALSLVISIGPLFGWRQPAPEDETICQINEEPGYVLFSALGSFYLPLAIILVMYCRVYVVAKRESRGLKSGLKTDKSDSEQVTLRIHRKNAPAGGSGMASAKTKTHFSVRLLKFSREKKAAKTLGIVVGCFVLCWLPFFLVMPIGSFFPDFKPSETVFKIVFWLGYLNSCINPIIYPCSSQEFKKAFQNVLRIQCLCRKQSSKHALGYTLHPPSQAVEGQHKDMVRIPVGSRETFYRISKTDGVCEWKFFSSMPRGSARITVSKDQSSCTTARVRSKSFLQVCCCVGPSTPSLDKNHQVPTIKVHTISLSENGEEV

[6] = biological target: T3, B2 bradykinin receptor (Homo sapiens, UniProt P30411)
T3 sequence (P30411 whole entry): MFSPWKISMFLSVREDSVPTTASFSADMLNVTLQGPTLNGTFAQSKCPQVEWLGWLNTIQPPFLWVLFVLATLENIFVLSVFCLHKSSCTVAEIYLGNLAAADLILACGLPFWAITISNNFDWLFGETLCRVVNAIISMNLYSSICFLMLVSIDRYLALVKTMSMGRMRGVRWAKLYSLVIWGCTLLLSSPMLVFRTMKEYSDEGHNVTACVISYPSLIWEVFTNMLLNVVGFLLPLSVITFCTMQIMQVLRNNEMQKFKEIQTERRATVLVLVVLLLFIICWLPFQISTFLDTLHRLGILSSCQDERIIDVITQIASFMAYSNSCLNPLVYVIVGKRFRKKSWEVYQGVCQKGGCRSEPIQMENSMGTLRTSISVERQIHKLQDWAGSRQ

[7] = biological target: T2, Alpha-1A adrenergic receptor; format: functional, cell-based; remark: listed apart in the source
[8] = biological target: T4, Muscarinic acetylcholine receptor M2 (Homo sapiens, UniProt P08172)
T4 sequence (P08172 whole entry): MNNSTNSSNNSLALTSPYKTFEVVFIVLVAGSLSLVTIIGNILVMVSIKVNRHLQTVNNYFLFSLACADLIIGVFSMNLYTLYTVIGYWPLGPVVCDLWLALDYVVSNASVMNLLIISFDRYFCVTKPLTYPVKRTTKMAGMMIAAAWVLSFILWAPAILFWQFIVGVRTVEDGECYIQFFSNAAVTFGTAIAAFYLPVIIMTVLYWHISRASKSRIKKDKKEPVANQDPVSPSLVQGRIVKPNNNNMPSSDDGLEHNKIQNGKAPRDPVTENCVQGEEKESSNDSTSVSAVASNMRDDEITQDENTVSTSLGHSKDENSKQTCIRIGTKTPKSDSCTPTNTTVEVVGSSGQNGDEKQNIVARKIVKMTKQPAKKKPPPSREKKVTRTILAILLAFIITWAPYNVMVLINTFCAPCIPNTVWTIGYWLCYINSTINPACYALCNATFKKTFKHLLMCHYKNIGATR

[9] = biological target: Vascular endothelial growth factor receptor 2 (Homo sapiens, UniProt P35968); format: functional
Sequence of Vascular endothelial growth factor receptor 2 (P35968 whole entry): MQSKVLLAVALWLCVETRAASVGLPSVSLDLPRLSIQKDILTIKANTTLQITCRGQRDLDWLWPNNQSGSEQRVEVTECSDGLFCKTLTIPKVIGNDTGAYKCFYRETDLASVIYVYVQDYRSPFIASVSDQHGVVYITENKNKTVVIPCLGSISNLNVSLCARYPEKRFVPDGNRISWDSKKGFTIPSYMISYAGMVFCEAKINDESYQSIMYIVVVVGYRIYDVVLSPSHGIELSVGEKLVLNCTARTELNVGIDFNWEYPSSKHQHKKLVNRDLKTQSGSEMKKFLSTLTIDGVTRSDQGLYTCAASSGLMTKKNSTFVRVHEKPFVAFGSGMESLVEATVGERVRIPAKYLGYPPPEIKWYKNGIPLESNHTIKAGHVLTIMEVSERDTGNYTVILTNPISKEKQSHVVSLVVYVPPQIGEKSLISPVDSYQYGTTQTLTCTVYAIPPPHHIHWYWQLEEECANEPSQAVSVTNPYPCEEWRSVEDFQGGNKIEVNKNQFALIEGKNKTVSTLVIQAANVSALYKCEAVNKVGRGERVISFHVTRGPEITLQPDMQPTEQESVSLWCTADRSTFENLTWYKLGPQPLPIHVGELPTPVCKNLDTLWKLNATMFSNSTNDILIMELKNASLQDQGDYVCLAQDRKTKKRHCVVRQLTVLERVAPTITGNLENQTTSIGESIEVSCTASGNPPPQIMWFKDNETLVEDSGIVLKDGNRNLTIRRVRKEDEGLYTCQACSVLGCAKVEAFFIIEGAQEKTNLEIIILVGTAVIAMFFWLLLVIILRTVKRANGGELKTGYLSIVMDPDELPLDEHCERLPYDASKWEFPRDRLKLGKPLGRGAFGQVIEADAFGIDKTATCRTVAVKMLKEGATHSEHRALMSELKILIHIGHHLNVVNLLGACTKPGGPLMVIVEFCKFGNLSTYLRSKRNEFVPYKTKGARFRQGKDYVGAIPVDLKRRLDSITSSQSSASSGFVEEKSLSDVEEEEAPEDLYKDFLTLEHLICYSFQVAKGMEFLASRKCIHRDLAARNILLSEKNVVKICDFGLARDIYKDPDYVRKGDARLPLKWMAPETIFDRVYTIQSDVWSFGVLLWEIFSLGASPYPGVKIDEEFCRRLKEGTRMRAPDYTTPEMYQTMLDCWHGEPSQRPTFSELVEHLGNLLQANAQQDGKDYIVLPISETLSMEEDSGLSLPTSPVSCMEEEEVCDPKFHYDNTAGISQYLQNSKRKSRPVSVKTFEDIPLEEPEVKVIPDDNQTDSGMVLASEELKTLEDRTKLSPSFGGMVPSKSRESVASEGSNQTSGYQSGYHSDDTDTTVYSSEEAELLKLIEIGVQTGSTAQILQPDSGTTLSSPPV

[10] = biological target: Prostaglandin G/H synthase 1 (Homo sapiens, UniProt P23219); format: functional
Sequence of Prostaglandin G/H synthase 1 (P23219 whole entry): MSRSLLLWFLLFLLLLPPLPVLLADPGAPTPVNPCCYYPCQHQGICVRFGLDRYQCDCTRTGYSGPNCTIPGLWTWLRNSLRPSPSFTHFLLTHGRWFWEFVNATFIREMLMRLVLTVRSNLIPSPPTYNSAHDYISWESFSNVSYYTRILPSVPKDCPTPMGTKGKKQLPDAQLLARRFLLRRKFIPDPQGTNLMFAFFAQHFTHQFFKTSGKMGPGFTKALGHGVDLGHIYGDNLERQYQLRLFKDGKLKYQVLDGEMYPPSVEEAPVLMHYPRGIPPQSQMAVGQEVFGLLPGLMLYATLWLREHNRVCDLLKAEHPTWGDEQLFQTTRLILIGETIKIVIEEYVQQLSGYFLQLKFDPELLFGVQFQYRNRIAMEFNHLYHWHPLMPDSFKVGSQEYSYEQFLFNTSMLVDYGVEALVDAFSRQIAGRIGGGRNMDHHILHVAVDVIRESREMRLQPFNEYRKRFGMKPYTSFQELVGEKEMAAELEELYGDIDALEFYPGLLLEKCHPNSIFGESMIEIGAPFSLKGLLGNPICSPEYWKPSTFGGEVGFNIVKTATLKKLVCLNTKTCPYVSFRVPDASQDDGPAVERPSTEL

[11] = biological target: Cannabinoid receptor 1 (Homo sapiens, UniProt P21554); format: functional, cell-based
Sequence of Cannabinoid receptor 1 (P21554 whole entry): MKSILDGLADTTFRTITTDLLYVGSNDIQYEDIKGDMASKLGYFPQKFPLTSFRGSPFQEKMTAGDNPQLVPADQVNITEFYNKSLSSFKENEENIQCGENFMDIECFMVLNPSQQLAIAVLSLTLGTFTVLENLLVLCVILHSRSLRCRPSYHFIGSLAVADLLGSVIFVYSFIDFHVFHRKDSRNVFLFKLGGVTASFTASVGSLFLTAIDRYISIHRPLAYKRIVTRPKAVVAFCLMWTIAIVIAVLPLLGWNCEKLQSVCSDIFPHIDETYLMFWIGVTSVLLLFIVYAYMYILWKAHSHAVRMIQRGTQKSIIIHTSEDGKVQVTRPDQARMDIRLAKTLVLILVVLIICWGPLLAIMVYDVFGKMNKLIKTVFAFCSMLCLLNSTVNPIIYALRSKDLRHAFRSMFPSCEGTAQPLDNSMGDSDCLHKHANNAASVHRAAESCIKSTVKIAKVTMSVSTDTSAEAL
Further: assay procedure not described here.

Row | AC50 [1] [µM] | AC50 [2] [µM] | AC50 [3] [µM] | AC50 [4] [µM] | AC50 [5] [µM] | AC50 [6] [µM] | AC50 [7] [µM] | AC50 [11] [µM] | SMILES | AC50 [8] [µM] | AC50 [9] [µM] | AC50 [10] [µM]
1 | > 30 | > 30 | 5.7 | > 30 | > 30 | > 30 | 1.7 | – | COc1ccccc1OCC(O)CN1CCN(CC(=O)Nc2c(C)cccc2C)CC1 (stereo not given) [RANOLAZINE] | – | – | –
2 | – | – | – | – | – | – | – | – | COC(c1ccccc1)(c1ccccc1)[C@H](Oc1nc(C)cc(C)n1)C(=O)O [AMBRISENTAN] | > 30 | > 30 | > 30
3 | – | – | – | – | – | – | – | – | OCCN1C[C@H](O)[C@@H](O)[C@H](O)[C@H]1CO [MIGLITOL] | > 30 | > 30 | > 30
4 | – | – | – | – | – | – | – | – | CCCCCCOc1nsnc1C1=CCCN(C)C1 [XANOMELINE] | – | > 30 | > 30
5 | – | – | – | – | – | – | – | – | COCc1c(C(C)C)nc(C(C)C)c(/C=C/[C@@H](O)C[C@@H](O)CC(=O)O)c1-c1ccc(F)cc1 [CERIVASTATIN] | > 30 | > 30 | > 30
6 | – | – | – | – | – | – | – | – | CN(C)CC(c1ccc(O)cc1)C1(O)CCCCC1 (stereo not given) [DESVENLAFAXINE] | > 30 | > 30 | > 30
7 | – | – | – | – | – | – | – | – | CN(C)CCN1C(=O)c2ccccc2N(C)c2ccccc21 [DIBENZEPIN] | 2.62 | > 30 | > 30
8 | > 30 | > 30 | – | > 30 | > 30 | > 30 | > 30 | > 30 | Cc1nc([N+](=O)[O-])cn1-c1ccc([N+](=O)[O-])cc1 [NITREFAZOLE] | – | – | –
9 | – | – | – | – | – | – | – | – | CN(C)S(=O)(=O)c1ccc2c(c1)N(CCCN1CCC(CCO)CC1)c1ccccc1S2 [PIPOTIAZINE] | 1.72 | > 30 | > 30
10 | 2.71 | > 30 | > 30 | > 10 | > 30 | > 30 | > 30 | > 30 | O=C1Nc2ccc(Cl)cc2[C@@](C#CC2CC2)(C(F)(F)F)O1 [EFAVIRENZ] | – | – | –
11 | – | > 30 | > 10 | > 10 | > 30 | > 10 | > 30 | > 30 | Nc1ccn([C@H]2CC[C@@H](CO)O2)c(=O)n1 [ZALCITABINE] | – | – | –
12 | – | – | – | – | – | – | – | – | CC(C)(S)[C@@H](N)C(=O)O [PENICILLAMINE] | > 30 | > 30 | –
13 | > 30 | > 30 | – | > 30 | > 30 | > 30 | > 30 | > 30 | CC(=O)NCCCS(=O)(=O)O [ACAMPROSATE] | – | – | –
14 | – | – | – | – | – | – | – | – | CC(C)Nc1ncccn1 [ISAXONINE] | > 30 | > 30 | > 30
15 | – | – | – | – | – | – | – | – | CC(=O)N[C@@H]1[C@@H](O)[C@H](O)[C@@H](CO)O[C@H]1O [N-ACETYLGLUCOSAMINE] | > 30 | > 30 | > 30
16 | – | – | – | – | – | – | – | – | CCOC(=O)[C@H](CCc1ccccc1)N[C@@H](C)C(=O)N1[C@H](C(=O)O)C[C@H]2CCCC[C@@H]21 [TRANDOLAPRIL] | > 30 | > 30 | > 30
17 | – | > 30 | > 10 | – | > 30 | – | > 30 | > 30 | CNC(=O)c1ccccc1Sc1ccc2c(/C=C/c3ccccn3)n[nH]c2c1 [AXITINIB] | – | – | –
18 | > 30 | > 30 | > 30 | > 30 | > 30 | > 30 | > 30 | – | CCCCN1C[C@H](O)[C@@H](O)[C@H](O)[C@H]1CO | – | – | –
19 | > 10 | > 10 | > 10 | > 10 | – | > 10 | – | – | NS(=O)(=O)Cc1noc2ccccc12 [ZONISAMIDE] | – | – | –
20 | – | – | – | – | – | – | – | – | CCC1=C(C)CN(C(=O)NCCc2ccc(S(=O)(=O)NC(=O)N[C@H]3CC[C@H](C)CC3)cc2)C1=O [GLIMEPIRIDE] | > 30 | > 30 | > 30
21 | > 30 | > 30 | > 30 | > 30 | – | > 30 | – | > 30 | COc1cc2nc(N(C)CCCNC(=O)C3CCCO3)nc(N)c2cc1OC (stereo not given) [ALFUZOSIN] | – | – | –
22 | > 30 | > 30 | – | > 30 | > 30 | > 30 | > 30 | > 30 | Nc1nc(NC2CC2)c2ncn([C@H]3C=C[C@@H](CO)C3)c2n1 [ABACAVIR] | – | – | –
23 | – | – | – | – | – | – | – | – | CC(C)(C)NC[C@H](O)COc1ccccc1C1CCCC1 [PENBUTOLOL] | > 30 | > 30 | 26.4
24 | – | – | – | – | – | – | – | – | N[C@H](C(=O)O)[C@H](O)c1ccc(O)c(O)c1 [DROXIDOPA] | > 30 | > 30 | 17.8
25 | – | – | – | – | – | – | – | – | CN(C)[C@@H](c1cccc(O)c1)[C@H]1CCCC[C@H]1O [CIRAMADOL] | > 30 | 9.31 | > 10
26 | – | > 30 | > 30 | > 10 | > 30 | > 30 | > 30 | > 30 | CN1C(C(=O)Nc2ccccn2)=C(O)c2sc(Cl)cc2S1(=O)=O [LORNOXICAM] | – | – | –

Row | SMILES | AC50 [1] [µM] | AC50 [2] [µM] | AC50 [3] [µM] | AC50 [4] [µM] | AC50 [5] [µM] | AC50 [6] [µM] | AC50 [7] [µM] | AC50 [11] [µM] | AC50 [8] [µM] | AC50 [9] [µM] | AC50 [10] [µM]
27 | Cc1c(C(=O)NN2CCCCC2)nn(-c2ccc(Cl)cc2Cl)c1-c1ccc(Cl)cc1 [RIMONABANT] | > 30 | > 30 | > 10 | > 10 | > 30 | > 30 | 11 | – | – | – | –
28 | COc1cc(NC(C)CCCN)c2ncccc2c1 (stereo not given) [PRIMAQUINE] | – | – | – | – | – | > 30 | – | – | – | > 30 | –
29 | Cn1nnc2c(C(N)=O)ncn2c1=O [TEMOZOLOMIDE] | – | > 30 | > 10 | > 10 | > 30 | > 30 | > 30 | > 30 | – | – | –
30 | CN1C(=O)CCS(=O)(=O)C1c1ccc(Cl)cc1 (stereo not given) [CHLORMEZANONE] | > 10 | > 10 | > 10 | > 10 | – | > 10 | – | – | – | – | –
31 | COCCCN1CCC(NC(=O)c2cc(Cl)c(N)c3c2OCC3)CC1 [PRUCALOPRIDE] | – | > 30 | – | – | > 30 | – | 15 | > 30 | > 30 | – | > 30
32 | O=C(Cc1ccc(-c2ccccc2)cc1)Nc1ccccn1 [DIFENPIRAMIDE] | – | > 30 | – | > 30 | > 30 | – | > 30 | > 30 | > 30 | – | > 30
